{"source": "patent US20240270750A1", "about": "“IMIDAZOLE-CONTAINING INHIBITORS OF ALK2 KINASE” (BioCryst Pharmaceuticals, Inc., priority 2021, published 2024)", "target": "T1, ALK2 (Homo sapiens, UniProt Q04771)", "T1 construct": "purchased ThermoFisher Scientific (Life Technologies)", "T1 sequence (Q04771 21-509)": "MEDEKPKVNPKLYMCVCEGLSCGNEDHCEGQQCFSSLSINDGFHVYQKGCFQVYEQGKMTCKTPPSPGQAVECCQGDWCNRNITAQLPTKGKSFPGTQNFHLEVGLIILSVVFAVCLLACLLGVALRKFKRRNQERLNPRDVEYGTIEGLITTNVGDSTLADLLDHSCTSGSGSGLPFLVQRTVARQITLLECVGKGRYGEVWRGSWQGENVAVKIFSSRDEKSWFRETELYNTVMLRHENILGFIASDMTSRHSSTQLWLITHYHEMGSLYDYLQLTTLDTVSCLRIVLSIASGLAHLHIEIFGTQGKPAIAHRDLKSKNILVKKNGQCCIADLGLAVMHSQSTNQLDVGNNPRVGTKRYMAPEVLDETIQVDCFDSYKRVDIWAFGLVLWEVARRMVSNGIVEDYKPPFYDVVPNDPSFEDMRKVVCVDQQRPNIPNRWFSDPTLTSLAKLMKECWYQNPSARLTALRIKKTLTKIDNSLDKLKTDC", "test": "LanthaScreen Eu Kinase Binding Assay, ALK2 inhibition", "details": "1 micromolar concentration", "experimental": "Biochemical assays to measure the inhibitory effects of the compounds were performed by ThermoFisher Scientific (Life Technologies). ALK2 inhibition was tested using LanthaScreen™ Eu Kinase Binding Assay screening protocol.", "data": [{"compound": "C=C(C)c1nc(Nc2cn(-c3cc(OC)c(OC)c(OC)c3)cn2)c2scc(C)c2n1", "note": "[Compound 92c, 7-methyl-2-(prop-1-en-2-yl)-N-(1-(3,4,5-trimethoxyphenyl)-1H-imidazol-4-yl)thieno[3,2-d]pyrimidin-4-amine]", "values": [{"measurement": "inhibition at 1 µM", "result": "> 50", "unit": "%"}]}, {"compound": "COc1cc(-n2cnc(Nc3nc(C(C)C)nc4scnc34)c2)cc(OC)c1OC", "note": "[Compound 93a, 5-isopropyl-N-(1-(3,4,5-trimethoxyphenyl)-1H-imidazol-4-yl)thiazolo[5,4-d]pyrimidin-7-amine]", "values": [{"measurement": "inhibition at 1 µM", "result": "> 50", "unit": "%"}]}, {"compound": "COc1cc(-n2cnc(Nc3nc(C(C)C)nc4c3ncn4C(C)C)c2)cc(OC)c1OC", "note": "[Compound 94a, 2,9-diisopropyl-N-(1-(3,4,5-trimethoxyphenyl)-1H-imidazol-4-yl)-9H-purin-6-amine]", "values": [{"measurement": "inhibition at 1 µM", "result": "> 50", "unit": "%"}]}, {"compound": "C=C(C)c1nc(Nc2cn(-c3cc(OC)c(OC)c(OC)c3)cn2)c2cc(F)ccc2n1", "note": "[Compound 95c, 6-fluoro-2-(prop-1-en-2-yl)-N-(1-(3,4,5-trimethoxyphenyl)-1H-imidazol-4-yl)quinazolin-4-amine]", "values": [{"measurement": "inhibition at 1 µM", "result": "> 50", "unit": "%"}]}, {"compound": "COc1cc(-n2cnc(Nc3nc(C(C)C)nc4c(C)csc34)c2)cc(OC)c1OC", "note": "[Compound 96a, 2-isopropyl-7-methyl-N-(1-(3,4,5-trimethoxyphenyl)-1H-imidazol-4-yl)thieno[3,2-d]pyrimidin-4-amine]", "values": [{"measurement": "inhibition at 1 µM", "result": "> 50", "unit": "%"}]}, {"compound": "C=C(C)c1nc(Nc2cn(-c3cc(OC)c(OC)c(OC)c3)cn2)c2ccn(C(C)C)c2n1", "note": "[Compound 97c, 7-isopropyl-2-(prop-1-en-2-yl)-N-(1-(3,4,5-trimethoxyphenyl)-1H-imidazol-4-yl)-7H-pyrrolo[2,3-d]pyrimidin-4-amine]", "values": [{"measurement": "inhibition at 1 µM", "result": "> 50", "unit": "%"}]}, {"compound": "COc1cc(-n2cnc(Nc3nc(C(C)C)nc4c3ccn4C(C)C)c2)cc(OC)c1OC", "note": "[Compound 98a, 2,7-diisopropyl-N-(1-(3,4,5-trimethoxyphenyl)-1H-imidazol-4-yl)-7H-pyrrolo[2,3-d]pyrimidin-4-amine]", "values": [{"measurement": "inhibition at 1 µM", "result": "> 50", "unit": "%"}]}, {"compound": "COc1cc(-n2cnc(Nc3nc(C(C)C)nc4ccc(F)cc34)c2)cc(OC)c1OC", "note": "[Compound 99a, 6-fluoro-2-isopropyl-N-(1-(3,4,5-trimethoxyphenyl)-1H-imidazol-4-yl)quinazolin-4-amine]", "values": [{"measurement": "inhibition at 1 µM", "result": "> 50", "unit": "%"}]}, {"compound": "COc1cc(-n2cnc(Nc3nc(C(C)CCN(C)C)nc4c3cnn4C(C)C)c2)cc(OC)c1OC", "note": "(stereo not drawn) [Compound 100b, 6-(4-(dimethylamino)butan-2-yl)-1-isopropyl-N-(1-(3,4,5-trimethoxyphenyl)-1H-imidazol-4-yl)-1H-pyrazolo[3,4-d]pyrimidin-4-amine]", "values": [{"measurement": "inhibition at 1 µM", "result": "> 50", "unit": "%"}]}, {"compound": "COc1cc(-n2cnc(Nc3nc(C4CCN(C)C4)nc4c3cnn4C(C)C)c2)cc(OC)c1OC", "note": "(stereo not drawn) [Compound 101b, 1-isopropyl-6-(1-methylpyrrolidin-3-yl)-N-(1-(3,4,5-trimethoxyphenyl)-1H-imidazol-4-yl)-1H-pyrazolo[3,4-d]pyrimidin-4-amine]", "values": [{"measurement": "inhibition at 1 µM", "result": "> 50", "unit": "%"}]}, {"compound": "COc1cc(-n2cnc(Nc3nc(C(C)C)nc4ncccc34)c2)cc(OC)c1OC", "note": "[Compound 102e, 2-isopropyl-N-(1-(3,4,5-trimethoxyphenyl)-1H-imidazol-4-yl)pyrido[2,3-d]pyrimidin-4-amine]", "values": [{"measurement": "inhibition at 1 µM", "result": "> 50", "unit": "%"}]}, {"compound": "CCOC(=O)CC(C)c1nc(Nc2cn(-c3cc(OC)c(OC)c(OC)c3)cn2)c2cnn(C(C)C)c2n1", "note": "(stereo not drawn) [Compound 103c, ethyl 3-(1-isopropyl-4-((1-(3,4,5-trimethoxyphenyl)-1H-imidazol-4-yl)amino)-1H-pyrazolo[3,4-d]pyrimidin-6-yl)butanoate]", "values": [{"measurement": "inhibition at 1 µM", "result": "> 50", "unit": "%"}]}, {"compound": "C=Cc1nc(Nc2cn(-c3cc(OC)c(OC)c(OC)c3)cn2)c2cnn(C(C)C)c2n1", "note": "[Compound 104a, 1-isopropyl-N-(1-(3,4,5-trimethoxyphenyl)-1H-imidazol-4-yl)-6-vinyl-1H-pyrazolo[3,4-d]pyrimidin-4-amine]", "values": [{"measurement": "inhibition at 1 µM", "result": "> 50", "unit": "%"}]}, {"compound": "COc1cc(-n2cnc(NC3=NC(C(C)C)=NC4C=COC34)c2)cc(OC)c1OC", "note": "(stereo not drawn) [Compound 105a, 2-isopropyl-N-(1-(3,4,5-trimethoxyphenyl)-1H-imidazol-4-yl)-4a,7a-dihydrofuro[3,2-d]pyrimidin-4-amine]", "values": [{"measurement": "inhibition at 1 µM", "result": "> 50", "unit": "%"}]}, {"compound": "COc1cc(-n2cnc(Nc3nc(C(C)CC(=O)O)nc4c3cnn4C(C)C)c2)cc(OC)c1OC", "note": "(stereo not drawn) [Compound 106a, 3-(1-isopropyl-4-((1-(3,4,5-trimethoxyphenyl)-1H-imidazol-4-yl)amino)-1H-pyrazolo[3,4-d]pyrimidin-6-yl)butanoic acid]", "values": [{"measurement": "inhibition at 1 µM", "result": "> 50", "unit": "%"}]}, {"compound": "COc1cc(-n2cnc(Nc3nc(C(C)CC(=O)NC4CC4)nc4c3cnn4C(C)C)c2)cc(OC)c1OC", "note": "(stereo not drawn) [Compound 107a, N-cyclopropyl-3-(1-isopropyl-4-((1-(3,4,5-trimethoxyphenyl)-1H-imidazol-4-yl)amino)-1H-pyrazolo[3,4-d]pyrimidin-6-yl)butanamide]", "values": [{"measurement": "inhibition at 1 µM", "result": "> 50", "unit": "%"}]}, {"compound": "CNC(=O)CC(C)c1nc(Nc2cn(-c3cc(OC)c(OC)c(OC)c3)cn2)c2cnn(C(C)C)c2n1", "note": "(stereo not drawn) [Compound 108a, 3-(1-isopropyl-4-((1-(3,4,5-trimethoxyphenyl)-1H-imidazol-4-yl)amino)-1H-pyrazolo[3,4-d]pyrimidin-6-yl)-N-methylbutanamide]", "values": [{"measurement": "inhibition at 1 µM", "result": "> 50", "unit": "%"}]}, {"compound": "COc1cc(-n2cnc(Nc3nc(C(C)CC(=O)NCCO)nc4c3cnn4C(C)C)c2)cc(OC)c1OC", "note": "(stereo not drawn) [Compound 109a, N-(2-hydroxyethyl)-3-(1-isopropyl-4-((1-(3,4,5-trimethoxyphenyl)-1H-imidazol-4-yl)amino)-1H-pyrazolo[3,4-d]pyrimidin-6-yl)butanamide]", "values": [{"measurement": "inhibition at 1 µM", "result": "< 50", "unit": "%"}]}, {"compound": "COc1cc(-n2cnc(Nc3cc(C4CC4)nc4c(C(C)C)cnn34)c2)cc(OC)c1OC", "note": "[Compound 110d, 5-cyclopropyl-3-isopropyl-N-(1-(3,4,5-trimethoxyphenyl)-1H-imidazol-4-yl)pyrazolo[1,5-a]pyrimidin-7-amine]", "values": [{"measurement": "inhibition at 1 µM", "result": "< 50", "unit": "%"}]}, {"compound": "COc1cc(-n2cnc(Nc3nc(C4CC4)nc4c(C(C)C)cnn34)c2)cc(OC)c1OC", "note": "[Compound 111d, 2-cyclopropyl-8-isopropyl-N-(1-(3,4,5-trimethoxyphenyl)-1H-imidazol-4-yl)pyrazolo[1,5-a][1,3,5]triazin-4-amine]", "values": [{"measurement": "inhibition at 1 µM", "result": "> 50", "unit": "%"}]}, {"compound": "COc1cc(-n2cnc(Nc3nc(C4CC4)nc4c3cnn4C(C)(C)C)c2)cc(OC)c1OC", "note": "[Compound 112d, 1-(tert-butyl)-6-cyclopropyl-N-(1-(3,4,5-trimethoxyphenyl)-1H-imidazol-4-yl)-1H-pyrazolo[3,4-d]pyrimidin-4-amine]", "values": [{"measurement": "inhibition at 1 µM", "result": "> 50", "unit": "%"}]}, {"compound": "CCn1ncc2c(Nc3cn(-c4cc(OC)c(OC)c(OC)c4)cn3)nc(C3CC3)nc21", "note": "[Compound 113d, 6-cyclopropyl-1-ethyl-N-(1-(3,4,5-trimethoxyphenyl)-1H-imidazol-4-yl)-1H-pyrazolo[3,4-d]pyrimidin-4-amine]", "values": [{"measurement": "inhibition at 1 µM", "result": "> 50", "unit": "%"}]}, {"compound": "COc1cc(-n2cnc(Nc3nc(C4CC4)nc4c3cnn4C)c2)cc(OC)c1OC", "note": "[Compound 114e, 6-cyclopropyl-1-methyl-N-(1-(3,4,5-trimethoxyphenyl)-1H-imidazol-4-yl)-1H-pyrazolo[3,4-d]pyrimidin-4-amine]", "values": [{"measurement": "inhibition at 1 µM", "result": "> 50", "unit": "%"}]}, {"compound": "COc1cc(-n2cnc(Nc3nc(C4CC4)nc4c3CCC4)c2)cc(OC)c1OC", "note": "[Compound 115b, 2-cyclopropyl-N-(1-(3,4,5-trimethoxyphenyl)-1H-imidazol-4-yl)-6,7-dihydro-5H-cyclopenta[d]pyrimidin-4-amine]", "values": [{"measurement": "inhibition at 1 µM", "result": "> 50", "unit": "%"}]}, {"compound": "COc1cc(-n2cnc(Nc3nc(C4CC4)nc4c3cnn4C3CC3)c2)cc(OC)c1OC", "note": "[Compound 116d, 1,6-dicyclopropyl-N-(1-(3,4,5-trimethoxyphenyl)-1H-imidazol-4-yl)-1H-pyrazolo[3,4-d]pyrimidin-4-amine]", "values": [{"measurement": "inhibition at 1 µM", "result": "> 50", "unit": "%"}]}, {"compound": "COc1cc(-n2cnc(Nc3nc(C4CC4)nc4c3cnn4CC(C)C)c2)cc(OC)c1OC", "note": "[Compound 117e, 6-cyclopropyl-1-isobutyl-N-(1-(3,4,5-trimethoxyphenyl)-1H-imidazol-4-yl)-1H-pyrazolo[3,4-d]pyrimidin-4-amine]", "values": [{"measurement": "inhibition at 1 µM", "result": "> 50", "unit": "%"}]}, {"compound": "COc1cc(-n2cnc(Nc3nc(C4CC4)nc4c3cnn4C34CC(C3)C4)c2)cc(OC)c1OC", "note": "[Compound 118f, 1-(bicyclo[1.1.1]pentan-1-yl)-6-cyclopropyl-N-(1-(3,4,5-trimethoxyphenyl)-1H-imidazol-4-yl)-1H-pyrazolo[3,4-d]pyrimidin-4-amine]", "values": [{"measurement": "inhibition at 1 µM", "result": "> 50", "unit": "%"}]}, {"compound": "COc1cc(-n2cnc(Nc3nc(CC4CC4)nc4c3cnn4C(C)(C)C)c2)cc(OC)c1OC", "note": "[Compound 119e, 1-(tert-butyl)-6-(cyclopropylmethyl)-N-(1-(3,4,5-trimethoxyphenyl)-1H-imidazol-4-yl)-1H-pyrazolo[3,4-d]pyrimidin-4-amine]", "values": [{"measurement": "inhibition at 1 µM", "result": "> 50", "unit": "%"}]}, {"compound": "COc1cc(-n2cnc(Nc3nc(C4CC4)nc4c3cnn4CC3CC3)c2)cc(OC)c1OC", "note": "[Compound 120f, 6-cyclopropyl-1-(cyclopropylmethyl)-N-(1-(3,4,5-trimethoxyphenyl)-1H-imidazol-4-yl)-1H-pyrazolo[3,4-d]pyrimidin-4-amine]", "values": [{"measurement": "inhibition at 1 µM", "result": "> 50", "unit": "%"}]}, {"compound": "COc1cc(-n2cnc(Nc3nc(CC4CC4)nc4c3cnn4CC3CC3)c2)cc(OC)c1OC", "note": "[Compound 121f, 1,6-bis(cyclopropylmethyl)-N-(1-(3,4,5-trimethoxyphenyl)-1H-imidazol-4-yl)-1H-pyrazolo[3,4-d]pyrimidin-4-amine]", "values": [{"measurement": "inhibition at 1 µM", "result": "> 50", "unit": "%"}]}]}
